The results in this text go back to PubChem BioAssay AID1996.

Converted amounts (≈) assume the structure as drawn.

The conditions of this data set: buffer; pH 7.4; 200.0 µM.
In turn, `CCc1ccc(N2CC(C(=O)Nc3ccc(F)cc3)CC2=O)cc1` (centres undefined) registered a solubility (kinetic) of 0.8 µg/mL (≈ 2.45 µM).

In turn, `CC(=O)N1CCN(c2ccc(NC(=O)c3ccc(Cl)cc3)cc2)CC1` returned a kinetic solubility of 1 µg/mL (≈ 2.79 µM).

`Cc1cc(NC(=O)CSCC(=O)Nc2cc(C(F)(F)F)ccc2N2CCCCC2)no1` came in with a kinetic solubility of 7.6 µg/mL (≈ 16.6 µM).

Consider `CC(NC(=O)COc1ccccc1)C(=O)NCc1ccc(S(N)(=O)=O)cc1` (centres undefined), for which the kinetic solubility is above 58.7 µg/mL.

`CN1CCN(c2ccc(NC(=O)c3ccc(Cl)cc3)cn2)CC1`: the solubility (kinetic) was above 49.6 µg/mL.

Regarding `CC(C)NC(=NCc1ccc(Cl)cc1Cl)Nc1ccccc1`, the solubility (kinetic) was above 50.4 µg/mL.

`COC(CNC(=O)c1ccc2c(c1)ncn2C1CCCCCC1)OC` returned a kinetic solubility above 51.8 µg/mL.

In the case of `CC(=O)NCCc1c[nH]c2ccc(O)cc12`, the kinetic solubility was above 32.7 µg/mL.

Turning to `COc1cccc(C(C)NC(=O)Nc2cc(Cl)ccc2OC)c1` (centres undefined), the solubility (kinetic) was below 0.4 µg/mL.

Take `N#Cc1ccc(OCC(=O)N2CCCC2=O)cc1`: the kinetic solubility was above 36.6 µg/mL.

The compound `O=C(NCCc1ccc(Cl)cc1)c1ccc2nc[nH]c2c1` displayed a kinetic solubility above 45 µg/mL.

In the case of `O=C(Nc1cccc(NC(=O)c2ccccc2[N+](=O)[O-])c1)c1ccccc1Cl`, the solubility (kinetic) worked out at 1.3 µg/mL (≈ 3.28 µM).

`CC1CC(C)(C)Nc2ccc(N=O)cc21` (centres undefined) registered a kinetic solubility above 30.6 µg/mL.

In turn, `Cc1cccc(NC(=O)NC(=O)c2ccccc2)n1` registered a solubility (kinetic) of 0.8 µg/mL (≈ 3.13 µM).

In turn, `Cc1cccc(NC(=O)C(=O)NCC2CCCO2)c1` (centres undefined) came in with a kinetic solubility above 39.3 µg/mL.

The compound `O=C(Nc1ccncc1)c1ccccc1Cl` came in with a kinetic solubility above 34.9 µg/mL.

With `COc1ccc(NC(=O)CCCc2ccc(OC)c(C)c2)cc1`, the kinetic solubility stood at 2.1 µg/mL (≈ 6.7 µM).

Compound `ON(Cc1c(F)cccc1Cl)Cc1c(F)cccc1Cl` came in with a solubility (kinetic) of 0.9 µg/mL (≈ 2.83 µM).

The compound `O=[N+]([O-])c1ccccc1Oc1ncccc1[N+](=O)[O-]` had a kinetic solubility of 27.3 µg/mL (≈ 105 µM).

`CN(C)CCCn1c(N)c(C#N)c2nc3ccccc3nc21` returned a kinetic solubility above 44.2 µg/mL.

In turn, `COc1nc(N(C)C)nc(N(C)c2cc(Cl)cc(Cl)c2)n1` yielded a kinetic solubility of 0.4 µg/mL (≈ 1.22 µM).

Regarding `CC(=O)N(CCCN(C)C)Cc1ccccn1`, the solubility (kinetic) stood at 30 µg/mL (≈ 127 µM).

On to `CC(C)(C)c1ccc(NC(=O)NC2CCCc3ccccc32)cc1` (centres undefined), for which the kinetic solubility was below 0.3 µg/mL.

Take `OCCNC(=S)Nc1ccc2c(c1)OCCO2`: the kinetic solubility was 37 µg/mL (≈ 145 µM).

In turn, `C=CC[N+]1(C)C2CCC1CC(O)C2.[Br-]` (centres undefined) had a solubility (kinetic) above 39.3 µg/mL.

As to `COc1ccc(-c2noc(CCC(=O)NCC3CCCO3)n2)cc1` (centres undefined), the kinetic solubility was above 49.7 µg/mL.

Compound `Cn1c(N)c(C(=O)COC(=O)C2CCCC2)c(=O)n(C)c1=O` registered a kinetic solubility above 46.4 µg/mL.

In turn, `COc1ccc(OCCN2C(=O)c3ccccc3C2=O)c([N+](=O)[O-])c1` gave a solubility (kinetic) of 1 µg/mL (≈ 2.92 µM).

The compound `O=C(COC(=O)c1ccccn1)NCCc1ccc(Cl)cc1` displayed a solubility (kinetic) above 47.8 µg/mL.

Regarding `COc1ccc(/C=C/C(=O)O)cc1S(=O)(=O)N1CCc2ccccc21`, the solubility (kinetic) is above 53.9 µg/mL.

In the case of `CN(Cc1nc2ccccc2c(=O)[nH]1)C(=O)c1cc2c(s1)CCCCC2`, the kinetic solubility is 4.8 µg/mL (≈ 13.1 µM).

With `CCn1cc(C(=S)N2CCC(C(N)=O)CC2)c2ccccc21`, the solubility (kinetic) came out at 38.7 µg/mL (≈ 123 µM).

Regarding `O=[N+]([O-])c1cccc(C(=NCc2ccccc2)NO)c1`, the solubility (kinetic) was above 40.7 µg/mL.

Take `CCN(C(=O)COC(=O)CCC(=O)c1cccs1)C1CCCCC1`: the kinetic solubility is above 52.7 µg/mL.

`Cc1csc(=O)n1CC(=O)Nc1ccc(Cl)cc1F` registered a solubility (kinetic) of 9 µg/mL (≈ 29.9 µM).

`Cc1cccc(NC(=O)CCS(=O)(=O)c2ccccc2)n1` yielded a kinetic solubility above 45.7 µg/mL.

With `CCNC(=O)C(=O)Nc1ccc(OC)c(Cl)c1`, the kinetic solubility was 2.4 µg/mL (≈ 9.35 µM).

As to `O=C1CCC(=O)N1OCCOc1ccccc1`, the solubility (kinetic) was above 35.3 µg/mL.

`COc1ccccc1CNc1ccc2c(c1)CCC2`: the kinetic solubility was 7.4 µg/mL (≈ 29.2 µM).

Take `O=c1c2ccccc2nc(/C=C/c2ccccc2)n1-c1ccc(O)cc1`: the kinetic solubility was 1.6 µg/mL (≈ 4.7 µM).

Take `O=C1CC(c2ccc(F)cc2)CC2=C1C=Nc1ccccc1N2` (centres undefined): the solubility (kinetic) was 0.7 µg/mL (≈ 2.29 µM).

`CCCN1C(=O)/C(=C2/C=Cc3ccccc3N2CC)SC1=S`: the solubility (kinetic) was below 0.4 µg/mL.

Take `Cc1cc(C)cc(C(=O)NCC(=O)OCC(=O)N2CCCCC2)c1`: the kinetic solubility was 49.3 µg/mL (≈ 148 µM).

For the compound `Cc1nn(-c2ccccc2)c(N)c1N=O`, the kinetic solubility was above 30.3 µg/mL.

For `CC(C)(C)NC(=O)c1cccc2c1-c1ccccc1C2=O`, the kinetic solubility amounted to 29.8 µg/mL (≈ 107 µM).

`CCOc1ccc(/C=C2\SC(=O)N(c3ccc(O)cc3)C2=O)cc1OC` displayed a kinetic solubility below 0.8 µg/mL.

`CCOC(=O)C1CCN(C(=O)COC(=O)/C=C/c2ccc([N+](=O)[O-])cc2)CC1` displayed a solubility (kinetic) of 18.7 µg/mL (≈ 47.9 µM).

In turn, `COc1ccc(CCNCc2sccc2C)cc1.Cl` returned a kinetic solubility above 44.7 µg/mL.

In the case of `CCOc1ccc(CN(C)C(=O)c2ccc3ccccc3n2)cc1`, the kinetic solubility stood at 34.7 µg/mL (≈ 108 µM).

Compound `CN(C)C(=O)C(NC(=O)c1ccccc1)=C(Cl)Cl` registered a kinetic solubility of 42 µg/mL (≈ 146 µM).

For `COC(=O)c1cc(OC)c(OC)cc1NC(=O)Nc1ccccc1F`, the solubility (kinetic) came to 2.4 µg/mL (≈ 6.89 µM).

As to `O=C(COC(=O)C1CC1)NC(=O)NCc1ccccc1`, the solubility (kinetic) is above 41.4 µg/mL.

The compound `CC(Oc1ccccc1)C(=O)NC1CCCCCCC1` (centres undefined) returned a kinetic solubility above 41.3 µg/mL.

For `Cc1cccc(NCc2ccc(Br)cc2)n1`, the kinetic solubility was 12 µg/mL (≈ 43.3 µM).

`O=S(=O)(c1ccccc1C(F)(F)F)N1CCN(c2ncnc3sccc23)CC1` showed a kinetic solubility of 4.6 µg/mL (≈ 10.7 µM).

On to `COc1ccc(OC)c(S(=O)(=O)NC2CCCCNC2=O)c1` (centres undefined), for which the solubility (kinetic) was above 49.3 µg/mL.

Consider `COc1ccc(S(=O)(=O)/C(C#N)=C/Nc2cccc(F)c2)cc1`, for which the kinetic solubility is below 0.4 µg/mL.

`COCCOC(=O)C1=C(C)NC(=O)NC1c1cccc(F)c1` (centres undefined) showed a solubility (kinetic) above 46.2 µg/mL.

Consider `C[N+]12CCCCC1[C@@H](CO)CCC2.[Br-]` (some centres undefined), for which the solubility (kinetic) is 39.1 µg/mL.

Consider `Cn1ccnc1C(O)(c1ccccc1)c1ccccc1`, for which the solubility (kinetic) is 35.4 µg/mL (≈ 134 µM).

With `O=C(CNS(=O)(=O)c1ccc(Br)cc1)Nc1ccc2c(c1)OCCO2`, the kinetic solubility is 8.7 µg/mL (≈ 20.4 µM).

`Cn1cnc2c1c(=O)[nH]c(=O)n2Cc1ccccc1` returned a solubility (kinetic) above 38.4 µg/mL.

In turn, `COc1ccc2[nH]c(C(=O)NCc3ccccc3)c(C)c2c1.Cl` returned a kinetic solubility of 2.7 µg/mL.

`COc1cccc(-c2noc(CCC(=O)NC3CCCC3)n2)c1` registered a kinetic solubility above 47.3 µg/mL.

Compound `Cc1cc(NC(=O)c2cccnc2)ccc1Br` showed a solubility (kinetic) of 40.2 µg/mL (≈ 138 µM).

`Cc1ccc(-c2nc(CN(C)C3CCOC3)c(C)o2)s1` (centres undefined): the solubility (kinetic) is above 43.9 µg/mL.

`N#CCNC1CC(=O)N(c2ccc(F)cc2)C1=O` (centres undefined) yielded a kinetic solubility of 29.9 µg/mL (≈ 121 µM).

Compound `CCN(CC)CCNC(=O)/C(=N\O)c1ccccn1` yielded a solubility (kinetic) above 39.6 µg/mL.

`COc1ccc(NC(=O)COC(=O)CC2CCCC2)cc1` yielded a kinetic solubility above 43.7 µg/mL.

In turn, `COc1ccccc1NC(=O)COC(=O)c1[nH]c(=O)[nH]c(=O)c1N` registered a solubility (kinetic) above 50.1 µg/mL.

Consider `Cc1ccc(OCC(=O)N2CCc3ccccc32)c([N+](=O)[O-])n1`, for which the kinetic solubility amounted to 1 µg/mL (≈ 3.19 µM).

`O=[N+]([O-])c1ccc(OCCCOc2cccc3cccnc23)cc1` yielded a solubility (kinetic) of 0.6 µg/mL (≈ 1.85 µM).

On to `CC(NC(=O)c1c(O)c2ccccc2[nH]c1=O)c1ccccc1` (centres undefined), for which the kinetic solubility is below 0.3 µg/mL.

In the case of `CCOC(=O)C1CCN(S(=O)(=O)c2cn(C)c(C)n2)CC1`, the kinetic solubility is above 47.3 µg/mL.

In turn, `O=C(Nc1ccc([N+](=O)[O-])cc1)Nc1cnccn1` registered a solubility (kinetic) of 2.9 µg/mL (≈ 11.2 µM).

In the case of `COc1ccc(NC(=O)CCCc2ccccc2)c(OC)c1`, the kinetic solubility was determined as 36.4 µg/mL (≈ 122 µM).

As for `Cc1ccc(C)c(NC(=O)CSc2nnc(-c3ccncc3)o2)c1`, the solubility (kinetic) is above 51.1 µg/mL.

Compound `COc1cccc(NC(=O)C(C)N2C(=O)c3ccccc3C2=O)c1` (centres undefined) gave a solubility (kinetic) of 27.3 µg/mL (≈ 84.2 µM).

With `Cc1ccc(C(=O)NC(=S)Nc2ccc(CN3CCOCC3)cc2)cc1`, the kinetic solubility turned out to be 2.7 µg/mL (≈ 7.31 µM).

On to `O=C1NC(=Nc2ccc(F)cc2)CS1`, for which the solubility (kinetic) is above 31.5 µg/mL.

On to `CCOc1ccc(/C=C2\SC(=S)N(C(C(=O)O)c3ccccc3)C2=O)cc1OC` (centres undefined), for which the solubility (kinetic) is above 64.4 µg/mL.

Regarding `COC(=O)C1CCC(=S)N1C(=O)c1ccccc1` (centres undefined), the solubility (kinetic) is above 39.5 µg/mL.

For `CCCCCC(=O)Nc1cccc(S(=O)(=O)NC2=NCCC2)c1`, the solubility (kinetic) is above 50.6 µg/mL.

Consider `CC(C)NC(=O)N1CCC(c2nc3ccccc3s2)CC1`, for which the kinetic solubility was above 45.5 µg/mL.

Consider `O=C(COC(=O)c1ccc2c(c1)OCCO2)Nc1ccc(F)cc1`, for which the solubility (kinetic) stood at 2.6 µg/mL (≈ 7.85 µM).

Compound `COC(=O)COc1ccc(S(=O)(=O)N2CCCCCC2)cc1` showed a solubility (kinetic) of 42.9 µg/mL (≈ 131 µM).

For the compound `CCOC(=O)c1c(C)[nH]c(C)c1S(=O)(=O)N1CCCCC1`, the solubility (kinetic) is above 47.2 µg/mL.

As to `COC(=O)c1sccc1S(=O)(=O)Nc1ccc(Cl)cc1`, the kinetic solubility came out at 13 µg/mL (≈ 39.2 µM).

Compound `CC1(C)CC(=O)N(c2cccc(C(F)(F)F)c2)C(=O)C1` registered a kinetic solubility of 8.1 µg/mL (≈ 28.4 µM).

For `CN1CCN(C(=S)c2ccc(-c3cc(Cl)ccc3Cl)o2)CC1`, the kinetic solubility amounted to 3.3 µg/mL (≈ 9.29 µM).

`Cl.O=C(OCCN1CCCCC1)C1(c2ccccc2)CCCC1` yielded a kinetic solubility above 50.7 µg/mL.

In the case of `Cc1cccc(N2CC(C(=O)NC3CCCCCC3)CC2=O)c1C` (centres undefined), the solubility (kinetic) is above 49.3 µg/mL.

`CCOC(=O)C(O)(c1ccc(N=c2ccccn2C)cc1)C(F)(F)F` (centres undefined): the kinetic solubility is 46.3 µg/mL (≈ 131 µM).

On to `CCN(CC)C(=N)N1c2ccccc2CCC1C.Cl` (centres undefined), for which the kinetic solubility was determined as 40.8 µg/mL.

As to `C=CCN(c1nc(C)cc(OC)n1)S(=O)(=O)c1ccccc1`, the solubility (kinetic) turned out to be 19.4 µg/mL (≈ 60.7 µM).

`c1ccc2nc3c(nc2c1)CCCC3` showed a kinetic solubility above 27.6 µg/mL.

For the compound `O=C(c1ccc([N+](=O)[O-])cc1[N+](=O)[O-])N1CCc2ccccc21`, the solubility (kinetic) was 4.2 µg/mL (≈ 13.4 µM).

The compound `NS(=O)(=O)c1cc2c(cc1C(F)(F)F)NC(Cc1ccccc1)NS2(=O)=O` (centres undefined) showed a solubility (kinetic) above 63.2 µg/mL.

In turn, `COC(=O)c1ccc(NC(=S)NCCc2ccc(OC)cc2)cc1` yielded a solubility (kinetic) of 0.8 µg/mL (≈ 2.32 µM).

`O=C(O)/C=C/C(=O)c1c(-c2ccccc2)[nH]c2ccccc12`: the solubility (kinetic) was above 43.7 µg/mL.

In the case of `O=C(Cc1ccc(Br)cc1)NCCc1ccccc1`, the kinetic solubility came out at 7.5 µg/mL (≈ 23.6 µM).

Take `O=C(NCCc1csc(-c2cccnc2)n1)c1cccc(Cl)c1`: the solubility (kinetic) is above 51.6 µg/mL.

In the case of `CC1CN(C(C)C)C(C)CC1OC(=O)c1ccccc1` (centres undefined), the solubility (kinetic) was above 41.3 µg/mL.

For `Cc1cc(C)cc(NC(=O)N2c3ccccc3NC(=O)CC2C)c1` (centres undefined), the solubility (kinetic) was 46.8 µg/mL (≈ 145 µM).
